In one assay the test system is Shay ulcer. As to the kind of experiment: Inhibitory activity on Shay ulcer in rats. Format: in vivo, Wistar rats (female). Conditions: Rattus norvegicus, sc, read-out: Inhibitory activity on Shay ulcer, ED50. The method, then: Female Wistar rats (140-180 g) were fasted for 44 hours but allowed free access to ater after which the pylorus was ligated as described by Shay et al. in the Gastroenterology, vol. […] Immediately after this ligation, test compound was given subcutaneously. Ten hours later, the animals were sacrificed by an overdose of ether, the stomach was removed and examined for lesions. The logarithm of the sum of each damaged area per rat was referred to as the ulcer index.
The Per Cent Inhibition was calculated as follows: [formula]
The ED50 was read from the semilogarithmic graph on which the Per Cent Inhibition was plotted vs. mg/kg dose.

For another assay, the system named is gastric motility. The assay is described as follows: Inhibitory activity on gastric motility under stress in rats. The format is in vivo, Wistar rats (male). Conditions: Rattus norvegicus, read-out: Inhibitory activity on gastric motility, ED50. The method, then: The procedure described by K. Watanabe in the Chemical & Pharmaceutical Bulletin, vol.
Male Wistar rats weighing about 250 g were used. After fasting for 18 hours, rats were fixed on their backs by the limbs with thread on boads and immersed into water to the depth of the xiphoid cartilage. Temperature of water was kept at 22° C.
Pressure change in small rubber balloon fixed in the grandular stomach was recorded with pressure transducer (Nihon Koden Kogyo Co., Ltd., MP-4T). The balloon was inserted from the forestomach under light ether anesthesia. Initial pressure was kept at the height of 10 mmHg.
When the effect of anesthesia and of the operation diminished, test compound was administered into the stomach through the polyethylene tube which was previously inserted into the stomach with the balloon.

The next assay deals with gastric secretion. The assay is described as follows: Inhibitory activity on gastric secretion in rats. Conditions: Rattus norvegicus, sc, read-out: Inhibitory activity on gastric secretion, ED50. Format: in vivo, Wistar rats (male). How it is done: After fasting for 48 hours, the stomach of male Wistar rats weighing about 200 g were ligated at the pylorus under light ether anesthesia as described by Shay et al. in the Gastroenterology, vol. 5, pp. 43-61 (1945). Immediately after this ligation, test compound was given subcutaneously. Four hours later, the gastric juice in the stomach was collected and centrifuged for each rat and expressed as ml per 100 g of body weight.
The ED50 was calculated in the same manner as Test (I) on Shay ulcer.

Assay [1] deals with T1, acetylcholine (contracting action of the guinea pig intestine) (Cavia porcellus).
T1 construct: contracting action of the guinea pig intestine; from tissue; host or cells: guinea pig intestine
T1 sequence (H0W1Z3 1-590): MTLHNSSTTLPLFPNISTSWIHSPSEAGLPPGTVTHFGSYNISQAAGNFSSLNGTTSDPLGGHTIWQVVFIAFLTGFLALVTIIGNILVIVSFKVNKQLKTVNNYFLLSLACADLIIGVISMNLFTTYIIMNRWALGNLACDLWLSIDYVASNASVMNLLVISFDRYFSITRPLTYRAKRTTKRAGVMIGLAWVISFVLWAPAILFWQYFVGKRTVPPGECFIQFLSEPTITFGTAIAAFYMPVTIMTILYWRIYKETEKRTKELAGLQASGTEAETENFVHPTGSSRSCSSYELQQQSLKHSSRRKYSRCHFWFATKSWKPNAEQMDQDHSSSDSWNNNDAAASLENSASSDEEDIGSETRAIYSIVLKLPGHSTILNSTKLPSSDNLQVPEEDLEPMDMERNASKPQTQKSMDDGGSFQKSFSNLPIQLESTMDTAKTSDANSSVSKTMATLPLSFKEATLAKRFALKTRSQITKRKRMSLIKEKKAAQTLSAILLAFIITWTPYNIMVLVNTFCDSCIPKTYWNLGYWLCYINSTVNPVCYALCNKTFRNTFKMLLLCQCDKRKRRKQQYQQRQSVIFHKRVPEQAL
The assay is described as follows: Acetylcholine antagonistic activity on contraction of guinea pig intestine. Conditions: negative log10 of molar concentration reducing effect of a double dose of acetylcholine to that of a single dose, read-out: Acetylcholine antagonistic activity, pA2 (converted). How it is done: Acetylcholine antagonistic activity was tested according to the method described by J. M. Van Rossum et al. in the Archives Internationales de Pharmacodynamie et de Therapie, vol. 143, pp. 240-246 and pp. 299-330 (1963). The pA2 is the negative of the logarithm, to the base 10, of the molar concentration of the test compound which reduced the effect of a double dose of acetylcholine on contracting action of the guinea pig intestine compared with that of a single dose.

Like-named read-outs stand apart in the source and are kept apart here. Bounds are passed on as bounds.

With `CN1[C@@H]2CC[C@H]1C[C@@H](OC(=O)C(CO)c1ccccc1)C2` (stereo partly shown) [Atropine, reference compound], the ED50 in the assay on Shay ulcer (10 h) is 0.5 mg/kg; in the assay with gastric motility it was ≤ 3 mg/kg; in the assay with gastric secretion (4 h) it was 0.12 mg/kg.

Consider `O=C(O)/C=C\C(=O)O.c1csc(Cc2ccccc2OCC2CNCCO2)c1` (stereo not shown) [Compound A, 2-[2-(2-thenyl)phenoxymethyl]morpholine maleate], for which the 50% effective dose (ED50) in the assay on Shay ulcer (subcutaneous, immediately after pylorus ligation, examined 10 hours later) came to 5.5 mg/kg; in the assay on gastric motility (administered into the stomach, stress by water immersion at 22° C), 2.1 mg/kg; in the assay on gastric secretion (subcutaneous, immediately after pylorus ligation, gastric juice collected 4 hours later), 4.5 mg/kg. Besides, in assay [1], the Kb was 6.31 µM.

For orientation: ED50 means the midpoint of the dose-response relation.

For the origin of these results see US4005084A, “Thienylmethyl phenoxy morpholine compounds” (Yoshitomi Pharmaceutical Industries, Ltd., priority 1975, dated 1977).
